Like-named read-outs stand apart in the source and are kept apart here.
Assays:
[1] = tested on: MCF-7 cells (breast carcinoma); test: MTT cytotoxicity assay; type: cell-based; conditions: for IC50: Homo sapiens, MCF7, MTT, 48 h
Protocol: (§1) We incubated hepatic carcinoma (Snu-368 and Snu-739), breast carcinoma (MDA-MB-231 and MCF-7), cisplatin-sensitive lung cancer cells A549, and cisplatin-resistant lung cancer cells A549cisR in 96-well plates in a 5% CO2 atmosphere at 37°C for 24 h (5,000 cells/well). After adding drugs in freshly prepared culture medium (100 μl) and incubating for another 48 h, we added 20 μl MTT (5 mg/ml) and incubated for another 3 h. At last, after the medium was removed, 150 μl DMSO was added. By using a Bio-Rad 680 microplate reader, the absorbance was measured at 570 nm and the IC50 values were calculated using the GraphPad Prism software based on three parallel experiments.
(§2) In vitro assays were firstly conducted to evaluate the inhibitory effect of polyamine-based naphthalimide conjugates 5a-5c, 7a-7b, and 11a-11b on six cancer cell lines, namely, Snu-368 and Sun-739 (hepatoma cell line), MCF-7 (breast carcinoma), MDA-MB-231 (triple negative breast cancer), cisplatin-sensitive lung cancer A549, and resistant A549cisR cells by using traditional MTT tests. Two classic antitumor agents in clinic trials, amonafide and cisplatin, were chosen as the reference drugs (Table 1). The preliminary structure–activity relationship (SAR) can be obtained from the in vitro biological results.

[2] = tested on: Snu-368 cells (hepatic carcinoma); test: MTT cytotoxicity assay; type: cell-based; conditions: for IC50: MTT, 48 h
Protocol: as §1, §2

[3] = tested on: cisplatin-resistant lung cancer cells A549cisR; test: MTT cytotoxicity assay; type: cell-based; conditions: for RF (resistance factor): IC50 in A549cisR cells/IC50 in A549 cells; for IC50: MTT, 48 h
Protocol: as §1, §2

[4] = tested on: cisplatin-sensitive lung cancer cells A549; test: MTT cytotoxicity assay; type: cell-based; conditions: A549; for IC50: Homo sapiens, MTT, 48 h
Protocol: as §1, §2

[5] = tested on: MDA-MB-231 cells (triple negative breast cancer); test: MTT cytotoxicity assay; type: cell-based; conditions: MDA-MB-231; for IC50: Homo sapiens, MTT, 48 h
Protocol: as §1, §2

[6] = tested on: Snu-739 cells (hepatic carcinoma); test: MTT cytotoxicity assay; type: cell-based; conditions: for IC50: SNU-739, MTT, 48 h
Protocol: as §1, §2

[7] = tested on: HL-7702 (normal liver cell); test: MTT cytotoxicity on matched normal cells; type: cell-based; conditions: for IC50: Homo sapiens
Protocol: as §1
The selectivity for cancer cells over normal healthy cells is important for ideal anticancer agents, thereby mitigating undesired toxic side effects associated with chemotherapy. The selectivity of polyamine-based dinitro-naphthalimide conjugates 5a-5c was evaluated by Snu-368 and Snu-739 (hepatic carcinoma), and the matched normal cells HL-7702 (normal liver cell). Moreover, dinitro-naphthalimide conjugates 5a-5c (SI 1.94–7.47) show lower cytotoxicity in normal cells.

[8] = tested on: polyamine oxidase (PAO) in Snu-368 cells; test: PAO assay kit; type: cell-based; conditions: Snu-368, 10 μM, 24 h
Excerpt: (§3) We measured the total PAO level using a PAO assay kit according to our previous report (Liu et al., [2019]) (Hepeng Biotechnology, Cat. HEPENGBIO156).

[9] = tested on: polyamine oxidase (PAO) in Snu-739 cells; test: PAO assay kit; type: cell-based; conditions: Snu-739, 10 μM, 24 h
Excerpt: as §3

[10] = tested on: Put, Spd, and Spm in Snu-368 cells; test: Polyamine contents assay (HPLC, dansyl derivatives); type: cell-based; conditions: Snu-368, 24 h
Excerpt: (§4) According to our previous report (Wang et al., [2012]; Li et al., [2016], [2018]; Dai et al., [2017a]; Ma et al., [2017a],[b], [2018]; Liu et al., [2019]), the contents of Put, Spd, and Spm were detected by a G1321A fluorescence detector in both Snu-368 and Snu-739 cells. Cells were harvested and dansyl chloride was used as the derivation reagent. After converting to the corresponding dansyl derivatives, Put, Spd, and Spm were separated by using High Performance Liquid Chromatogra (HPLC) (Agilent 1260, Agilent Technologies, USA) with a C18 chromatographic column (25 × 4.6 mm, 5 μm). As the internal standard substance, 1,6-diaminohexane was used. The excitation and emission wavelengths were 340 and 515 nm, separately. The mobile phase was methanol–water from 65:35 to 100:0 within 30 min.

[11] = tested on: Put, Spd, and Spm in Snu-739 cells; test: as above; type: cell-based; conditions: Snu-739, 24 h
Excerpt: as §4

[12] = tested on: HCC xenografts; test: In vivo antitumor assay, HCC xenografts; conditions: for tumor suppression (inhibition rate, tumor weight): tail vein, once every day for 7 days
Excerpt: Healthy BALB/c mice (Cat. SCXK 2016-0006, Beijing, China) aged 5 weeks were used for the determination of anticancer activity. We obtained BALB/c mice from the Laboratory Animal Center, Academy of Military Medical Science. They were raised in compliance with the Guide for the Care and Use of Laboratory Animals. The weight of healthy BALB/c mice is 18–22 g.
We firstly injected HCC cells with 1 × 10^6 cells per mouse to determine the anticancer activity. After a week, the tumors increased to 80–120 mm^3. The mice were divided into four groups for 5c (3 mg/kg), 5c (5 mg/kg), the positive control amonafide (5 mg/kg), or the negative control physiological saline. We injected 5c or amonafide via the tail vein every day for a total of seven treatments. Body weight was determined every day. And then the mice were sacrificed after 7 days. The tumor tissues were weighed and the inhibition rate [((average tumor weight of negative control group – average tumor weight of the drug treated or positive control group)/average tumor weight of control group) × 100] was calculated. The organ index [(organ weight/body weight) × 100%] was also counted including heart, liver, kidney, lung, and spleen at the last day. Both 5c and amonafide were dissolved in glucose injection. And they were used immediately after preparation.
The highest FI levels in Snu-739 also indicate a significant therapy for HCC. Therefore, HCC animal models were used to test the in vivo antitumor activities. Mice bearing HCC xenografts were treated with 5c (3 mg/kg), 5c (5 mg/kg), the positive control amonafide (5 mg/kg), and normal saline (negative control) once every day for 7 days by tail vein (Figure 3).

[13] = tested on: Snu-739 cells; test: Annexin V-FITC/PI staining, flow cytometry; type: cell-based
Protocol: Annexin V-FITC/PI staining was used to detect the apoptosis of Snu-739 cells by FCM (flow cytometry). Firstly, we plated the cells in six-well plates (1 × 10^5 cells/well). 5c 10 μM and amonafide 10 μM were added and incubated for 24 h. And then we harvested the cells and washed three times with PBS. Then the protocol was stained according to our previous report (Wang et al., [2012]; Li et al., [2016], [2018]; Dai et al., [2017a]; Ma et al., [2017a],[b]; Ma et al., [2018]; Liu et al., [2019]) and was performed by FCM (BD Biosciences, San Jose, CA, USA).

[14] = tested on: p53 in Snu-739 cells; test: Western blot of p53; type: cell-based; conditions: Snu-739, 24 h
Protocol: We performed western blot analysis to determine the contents of p53 after treatment by 5c for 5, 10, and 15 μM for 24 h. After washing three times with PBS, we harvested and centrifuged the cells, which were lysed with a RIPA buffer (Beyotime, China). The total contents of protein were determined by a BCA assay kit (Beyotime, China). At 100°C for 10 min, the total lysates were denatured in a 5 × SDS-loading buffer. Equal amounts of total proteins were separated by 12% SDS-PAGE. Dried skimmed milk (5%) was used to block the separated protein in Tris Buffered Saline Tween (TBST) at room temperature for 1 h. And then the corresponding primary antibodies and the appropriate HRP-conjugated secondary antibody were used to incubate with the separated protein. By ECL plus reagents (Beyotime, Jiangsu, China), we detected the expression of p53.

[15] = tested on: six cancer cell lines (Snu-368, Snu-739, MCF-7, MDA-MB-231, A549, A549cisR); test: MTT cytotoxicity assay, whole panel; type: cell-based; conditions: versus amonafide and cisplatin
Protocol: as §1, §2

## O=C1c2cc([N+](=O)[O-])cc3cc([N+](=O)[O-])cc(c23)C(=O)N1CCCCNCCCNC1CCCCC1 [5a]
[1]
  IC50: 2300 ± 180 nM
[2]
  IC50: 2940 ± 60 nM
[3]
  RF (resistance factor): 1.67
  IC50: 3620 ± 150 nM
[4]
  IC50: 2170 ± 200 nM
[5]
  IC50: 1190 ± 120 nM
[6]
  IC50: 2160 ± 100 nM
[7]
  SI (selectivity index) IC50 in HL-7702/IC50 in Snu-368: 2.14
  SI (selectivity index) IC50 in HL-7702/IC50 in Snu-739: 2.92
[7]; L02, read-out: IC50 HL-7702
  IC50: 6300 ± 230 nM

## O=C1c2cc([N+](=O)[O-])cc3cc([N+](=O)[O-])cc(c23)C(=O)N1CCCCNCCCCNC1CCCCC1 [5b]
[1]
  IC50: 1250 ± 100 nM
[2]
  IC50: 2720 ± 250 nM
[3]
  RF (resistance factor): 1.30
  IC50: 2270 ± 250 nM
[4]
  IC50: 1750 ± 150 nM
[5]
  IC50: 1070 ± 100 nM
[6]
  IC50: 3890 ± 350 nM
[7]
  SI (selectivity index) IC50 in HL-7702/IC50 in Snu-368: 2.78
  SI (selectivity index) IC50 in HL-7702/IC50 in Snu-739: 1.94
[7]; L02, read-out: IC50 HL-7702
  IC50: 7560 ± 430 nM

## O=C1c2cc([N+](=O)[O-])cc3cc([N+](=O)[O-])cc(c23)C(=O)N1CCCCNCCCNC1CC1 [5c]
[8]
  relative PAO activity versus control group: 1.5–2 folds
[9]
  relative PAO activity versus control group: 1.5–2 folds
[10]
  contents of Put, Spd, and Spm versus control group: downregulated
[11]
  contents of Put, Spd, and Spm versus control group: downregulated
[1]
  IC50: 1350 ± 150 nM
[1]; MCF-7
  FI (fold increase) IC50(amonafide)/IC50(5c): 4.36
  FI (fold increase) IC50(cisplatin)/IC50(5c): 7.11
[2]
  IC50: 1090 ± 100 nM
[2]; Snu-368
  FI (fold increase) IC50(amonafide)/IC50(5c): 12.83
  FI (fold increase) IC50(cisplatin)/IC50(5c): 15.02
[3]; A549cisR
  FI (fold increase) IC50(amonafide)/IC50(5c): 13.23
  FI (fold increase) IC50(cisplatin)/IC50(5c): 48.63
[3]
  RF (resistance factor): 0.43
  IC50: 830 ± 80 nM
[3]; ratio of RF values
  FI (fold increase) amonafide/5c in RF column: 3.70
[4]
  FI (fold increase) IC50(amonafide)/IC50(5c): 3.59
  FI (fold increase) IC50(cisplatin)/IC50(5c): 5.73
  IC50: 1920 ± 230 nM
[5]
  IC50: 1330 ± 120 nM
  FI (fold increase) IC50(amonafide)/IC50(5c): 11.20
  FI (fold increase) IC50(cisplatin)/IC50(5c): 12.02
[6]
  IC50: 760 ± 50 nM
[6]; Snu-739
  FI (fold increase) IC50(amonafide)/IC50(5c): 17.08
  FI (fold increase) IC50(cisplatin)/IC50(5c): 13.18
[12]; 3 mg/kg
  tumor suppression (inhibition rate, tumor weight): 57.97%
[12]; 5 mg/kg
  tumor suppression (inhibition rate, tumor weight): 65.90%
[12]; day 7, control group 900 mm^3, dose not stated
  average tumor volume: 480 mm^3
[12]; heart, liver, kidney, lung, spleen, end of experiment
  organ weight indexes / toxicological profile in vivo: no obvious pathological changes
[7]
  SI (selectivity index) IC50 in HL-7702/IC50 in Snu-368: 5.21
  SI (selectivity index) IC50 in HL-7702/IC50 in Snu-739: 7.47
[7]; HL-7702 versus Snu-368 and Snu-739
  SI (selectivity index), range over Snu-368 and Snu-739: 5.21–7.47
[7]; L02, normal liver cell, read-out: IC50 HL-7702
  IC50: 5680 ± 830 nM
[13]; 10 μM, 24 h
  early apoptotic cells: 35.00%
  late apoptotic cells: 38.50%
[13]; total of early and late
  apoptotic cells: 73.50%
[14]
  p53 protein expression: upregulated
[15]
  FI (fold increase), range over cell lines: 3.59–48.63

## Nc1cc2c3c(cc(N)cc3c1)C(=O)N(CCCCNCCCNC1CC1)C2=O [7a]
[1]
  IC50: 8620 ± 850 nM
[2]
  IC50: > 30000 nM
[3]
  IC50: 17400 ± 1680 nM
[4]
  IC50: 14000 ± 1390 nM
[5]
  IC50: 26900 ± 2650 nM
[6]
  IC50: 25800 ± 2900 nM
